Assay results from article PMC9851200, “Multiparameter phenotypic screening for endogenous TFEB and TFE3 translocation identifies novel chemical series modulating lysosome function” (Autophagy, 2022).

Experiments:
Assay type in all cases: binding
[1] = molecular target: T1, kinases (KINOMEscan panel) (Homo sapiens, UniProt Q08881); conditions: kinase ITK; NEW KINOMEscan
T1 sequence (Q08881 1-620): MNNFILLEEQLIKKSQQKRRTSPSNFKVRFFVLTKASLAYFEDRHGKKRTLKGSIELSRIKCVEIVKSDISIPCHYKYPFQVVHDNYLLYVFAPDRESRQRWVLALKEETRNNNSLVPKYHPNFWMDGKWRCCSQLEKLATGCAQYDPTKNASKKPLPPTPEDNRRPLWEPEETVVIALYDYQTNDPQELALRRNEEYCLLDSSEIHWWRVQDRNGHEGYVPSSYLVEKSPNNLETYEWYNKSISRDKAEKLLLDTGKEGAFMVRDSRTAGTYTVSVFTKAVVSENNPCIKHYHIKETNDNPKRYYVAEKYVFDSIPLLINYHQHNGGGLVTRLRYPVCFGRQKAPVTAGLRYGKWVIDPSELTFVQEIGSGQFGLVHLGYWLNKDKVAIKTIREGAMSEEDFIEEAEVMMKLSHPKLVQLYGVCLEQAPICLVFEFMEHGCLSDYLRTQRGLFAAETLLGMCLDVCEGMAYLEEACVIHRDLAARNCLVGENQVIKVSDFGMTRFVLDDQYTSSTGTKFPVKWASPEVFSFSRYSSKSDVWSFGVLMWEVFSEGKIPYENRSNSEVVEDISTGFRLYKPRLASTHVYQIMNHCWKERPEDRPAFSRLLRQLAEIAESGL

[2] = molecular target: kinases (KINOMEscan panel) (Homo sapiens, UniProt P10721, V559D/V654A); conditions: kinase KIT(V559D,V654A); NEW KINOMEscan
[3] = molecular target: kinases (KINOMEscan panel) (Homo sapiens, UniProt P08631); conditions: kinase HCK; NEW KINOMEscan
[4] = molecular target: kinases (KINOMEscan panel) (Homo sapiens, UniProt Q9H422); conditions: kinase HIPK3; NEW KINOMEscan
[5] = molecular target: kinases (KINOMEscan panel) (Homo sapiens, UniProt Q9BWU1); conditions: kinase CDK19; NEW KINOMEscan
[6] = molecular target: kinases (KINOMEscan panel) (Homo sapiens, UniProt Q02779); conditions: kinase MAP3K10; NEW KINOMEscan
[7] = molecular target: T2, kinases (KINOMEscan panel) (Homo sapiens, UniProt Q13470); conditions: TNK1; NEW KINOMEscan
T2 sequence (Q13470 1-666): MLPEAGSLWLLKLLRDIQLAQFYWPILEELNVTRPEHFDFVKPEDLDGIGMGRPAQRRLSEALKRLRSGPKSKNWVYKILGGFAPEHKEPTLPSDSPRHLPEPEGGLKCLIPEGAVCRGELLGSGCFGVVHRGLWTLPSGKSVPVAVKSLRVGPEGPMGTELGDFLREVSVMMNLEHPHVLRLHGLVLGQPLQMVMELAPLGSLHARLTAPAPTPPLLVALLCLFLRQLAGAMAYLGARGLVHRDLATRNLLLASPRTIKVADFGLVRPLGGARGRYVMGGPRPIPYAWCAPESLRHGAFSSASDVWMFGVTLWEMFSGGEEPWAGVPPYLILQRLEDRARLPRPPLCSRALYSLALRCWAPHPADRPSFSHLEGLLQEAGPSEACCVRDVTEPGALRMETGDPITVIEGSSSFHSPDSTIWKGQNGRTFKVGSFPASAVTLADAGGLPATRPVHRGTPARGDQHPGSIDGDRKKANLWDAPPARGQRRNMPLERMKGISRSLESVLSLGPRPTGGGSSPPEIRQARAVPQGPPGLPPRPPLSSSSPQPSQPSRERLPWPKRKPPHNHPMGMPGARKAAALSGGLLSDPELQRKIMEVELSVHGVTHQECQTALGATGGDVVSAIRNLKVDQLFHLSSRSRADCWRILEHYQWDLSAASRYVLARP

[8] = molecular target: T3, kinases (KINOMEscan panel) (Homo sapiens, UniProt O00444); conditions: kinase PLK4; NEW KINOMEscan
T3 sequence (O00444 1-970): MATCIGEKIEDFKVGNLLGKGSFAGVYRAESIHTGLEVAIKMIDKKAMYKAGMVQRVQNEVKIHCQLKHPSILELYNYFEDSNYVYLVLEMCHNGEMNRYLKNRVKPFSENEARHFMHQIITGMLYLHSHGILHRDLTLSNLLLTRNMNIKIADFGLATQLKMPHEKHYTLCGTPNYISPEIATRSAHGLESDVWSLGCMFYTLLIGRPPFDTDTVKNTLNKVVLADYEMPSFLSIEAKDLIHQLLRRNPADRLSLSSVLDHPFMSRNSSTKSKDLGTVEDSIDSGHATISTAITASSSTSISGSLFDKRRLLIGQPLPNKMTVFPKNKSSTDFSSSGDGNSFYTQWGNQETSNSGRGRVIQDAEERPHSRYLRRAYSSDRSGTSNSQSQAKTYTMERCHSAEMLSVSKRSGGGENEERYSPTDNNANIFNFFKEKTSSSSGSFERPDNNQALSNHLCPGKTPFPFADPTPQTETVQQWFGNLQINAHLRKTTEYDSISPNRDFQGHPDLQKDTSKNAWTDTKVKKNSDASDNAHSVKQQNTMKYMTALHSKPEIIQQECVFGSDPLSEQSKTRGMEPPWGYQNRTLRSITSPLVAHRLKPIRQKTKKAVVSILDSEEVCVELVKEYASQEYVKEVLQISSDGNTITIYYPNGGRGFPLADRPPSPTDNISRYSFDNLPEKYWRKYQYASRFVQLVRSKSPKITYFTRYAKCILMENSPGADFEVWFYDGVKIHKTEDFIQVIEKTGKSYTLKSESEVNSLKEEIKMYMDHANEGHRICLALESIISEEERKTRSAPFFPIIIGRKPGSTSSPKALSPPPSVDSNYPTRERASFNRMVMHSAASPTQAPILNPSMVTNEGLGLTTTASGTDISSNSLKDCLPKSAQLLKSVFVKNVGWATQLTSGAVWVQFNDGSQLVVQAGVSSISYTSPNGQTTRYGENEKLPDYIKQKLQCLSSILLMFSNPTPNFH

[9] = molecular target: kinases (KINOMEscan panel) (Homo sapiens, UniProt O43683); conditions: kinase BUB1; NEW KINOMEscan
[10] = molecular target: kinases (KINOMEscan panel) (Homo sapiens, UniProt P09769); conditions: FGR; NEW KINOMEscan
[11] = molecular target: kinases (KINOMEscan panel) (Homo sapiens, UniProt Q9P2K8, S808G)

Sequence of kinases (KINOMEscan panel) (Homo sapiens, UniProt P10721, V559D/V654A) (P10721 26-976 V559D/V654A): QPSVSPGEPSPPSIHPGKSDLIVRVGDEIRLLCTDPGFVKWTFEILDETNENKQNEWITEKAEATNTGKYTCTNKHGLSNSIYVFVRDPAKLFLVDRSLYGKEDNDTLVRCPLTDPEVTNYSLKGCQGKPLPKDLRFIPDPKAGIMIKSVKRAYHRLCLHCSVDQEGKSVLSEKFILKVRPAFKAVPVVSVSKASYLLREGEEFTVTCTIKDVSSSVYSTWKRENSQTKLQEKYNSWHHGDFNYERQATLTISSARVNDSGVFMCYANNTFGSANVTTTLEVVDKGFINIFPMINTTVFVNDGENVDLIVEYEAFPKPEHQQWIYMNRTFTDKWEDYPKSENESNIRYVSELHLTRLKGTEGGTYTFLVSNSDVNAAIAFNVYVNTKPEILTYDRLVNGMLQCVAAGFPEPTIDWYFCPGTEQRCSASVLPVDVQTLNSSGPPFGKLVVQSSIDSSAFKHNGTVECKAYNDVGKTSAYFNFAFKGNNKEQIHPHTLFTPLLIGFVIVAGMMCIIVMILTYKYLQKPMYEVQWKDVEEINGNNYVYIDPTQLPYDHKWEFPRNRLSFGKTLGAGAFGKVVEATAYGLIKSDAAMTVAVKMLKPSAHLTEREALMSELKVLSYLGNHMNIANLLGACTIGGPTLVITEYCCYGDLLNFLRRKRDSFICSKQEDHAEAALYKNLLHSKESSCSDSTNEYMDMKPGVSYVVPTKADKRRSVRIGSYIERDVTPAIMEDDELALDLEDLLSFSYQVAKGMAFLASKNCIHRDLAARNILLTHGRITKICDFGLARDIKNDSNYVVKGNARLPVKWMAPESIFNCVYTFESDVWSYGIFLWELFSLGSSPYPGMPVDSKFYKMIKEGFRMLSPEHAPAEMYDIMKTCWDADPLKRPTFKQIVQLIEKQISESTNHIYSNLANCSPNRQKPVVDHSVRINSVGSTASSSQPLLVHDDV
Sequence of kinases (KINOMEscan panel) (Homo sapiens, UniProt Q02779) (Q02779 whole entry): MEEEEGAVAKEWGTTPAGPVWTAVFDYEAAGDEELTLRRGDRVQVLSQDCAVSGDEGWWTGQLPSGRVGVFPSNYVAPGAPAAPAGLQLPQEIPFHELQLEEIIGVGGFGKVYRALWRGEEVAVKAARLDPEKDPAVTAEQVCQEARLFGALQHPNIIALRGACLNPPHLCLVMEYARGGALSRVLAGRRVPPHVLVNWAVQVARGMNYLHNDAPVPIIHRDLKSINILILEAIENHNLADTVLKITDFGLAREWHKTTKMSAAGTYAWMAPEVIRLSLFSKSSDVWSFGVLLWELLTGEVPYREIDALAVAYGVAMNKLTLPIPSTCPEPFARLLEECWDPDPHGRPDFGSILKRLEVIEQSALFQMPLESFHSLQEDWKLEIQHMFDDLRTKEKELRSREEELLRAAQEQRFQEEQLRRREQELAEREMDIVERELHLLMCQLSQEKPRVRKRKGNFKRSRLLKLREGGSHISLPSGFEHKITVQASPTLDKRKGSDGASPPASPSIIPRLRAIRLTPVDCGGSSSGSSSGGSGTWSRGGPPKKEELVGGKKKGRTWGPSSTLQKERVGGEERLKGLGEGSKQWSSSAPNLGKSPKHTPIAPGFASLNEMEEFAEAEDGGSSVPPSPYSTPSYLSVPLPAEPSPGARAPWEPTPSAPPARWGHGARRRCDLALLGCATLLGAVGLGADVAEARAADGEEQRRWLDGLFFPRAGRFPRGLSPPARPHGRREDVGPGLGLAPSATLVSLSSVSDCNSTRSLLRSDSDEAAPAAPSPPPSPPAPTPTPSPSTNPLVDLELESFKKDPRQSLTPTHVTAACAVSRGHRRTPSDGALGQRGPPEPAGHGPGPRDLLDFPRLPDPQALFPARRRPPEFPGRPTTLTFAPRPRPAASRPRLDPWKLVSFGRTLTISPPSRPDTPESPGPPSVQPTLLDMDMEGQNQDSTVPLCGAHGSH
Sequence of kinases (KINOMEscan panel) (Homo sapiens, UniProt P08631) (P08631 whole entry): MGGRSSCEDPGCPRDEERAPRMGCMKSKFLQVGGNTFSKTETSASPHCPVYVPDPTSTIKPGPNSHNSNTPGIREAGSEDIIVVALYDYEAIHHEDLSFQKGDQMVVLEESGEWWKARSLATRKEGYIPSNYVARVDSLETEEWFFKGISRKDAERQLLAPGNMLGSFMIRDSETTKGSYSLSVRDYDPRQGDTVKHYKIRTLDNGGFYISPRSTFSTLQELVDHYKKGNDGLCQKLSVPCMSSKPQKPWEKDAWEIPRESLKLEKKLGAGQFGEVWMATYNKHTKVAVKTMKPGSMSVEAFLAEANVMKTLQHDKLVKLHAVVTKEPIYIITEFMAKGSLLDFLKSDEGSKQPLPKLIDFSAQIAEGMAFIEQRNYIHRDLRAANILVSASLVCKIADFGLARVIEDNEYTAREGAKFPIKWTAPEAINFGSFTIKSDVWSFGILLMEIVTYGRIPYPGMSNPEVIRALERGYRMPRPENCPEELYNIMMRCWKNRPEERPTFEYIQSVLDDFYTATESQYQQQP
Sequence of kinases (KINOMEscan panel) (Homo sapiens, UniProt P09769) (P09769 whole entry): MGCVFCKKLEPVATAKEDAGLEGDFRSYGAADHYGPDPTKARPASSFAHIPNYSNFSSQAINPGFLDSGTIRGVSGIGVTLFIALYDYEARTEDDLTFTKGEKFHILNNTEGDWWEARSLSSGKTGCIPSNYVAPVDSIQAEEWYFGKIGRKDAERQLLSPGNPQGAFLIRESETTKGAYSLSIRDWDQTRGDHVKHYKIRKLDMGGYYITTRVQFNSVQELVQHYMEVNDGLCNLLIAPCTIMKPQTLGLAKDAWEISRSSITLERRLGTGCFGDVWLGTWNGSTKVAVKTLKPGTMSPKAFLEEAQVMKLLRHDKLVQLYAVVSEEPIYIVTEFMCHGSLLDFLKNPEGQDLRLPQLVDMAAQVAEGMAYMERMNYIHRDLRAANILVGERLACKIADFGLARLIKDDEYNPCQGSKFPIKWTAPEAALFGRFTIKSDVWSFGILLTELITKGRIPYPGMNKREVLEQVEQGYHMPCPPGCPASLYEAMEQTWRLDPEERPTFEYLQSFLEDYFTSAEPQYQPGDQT
Sequence of kinases (KINOMEscan panel) (Homo sapiens, UniProt O43683) (O43683 whole entry): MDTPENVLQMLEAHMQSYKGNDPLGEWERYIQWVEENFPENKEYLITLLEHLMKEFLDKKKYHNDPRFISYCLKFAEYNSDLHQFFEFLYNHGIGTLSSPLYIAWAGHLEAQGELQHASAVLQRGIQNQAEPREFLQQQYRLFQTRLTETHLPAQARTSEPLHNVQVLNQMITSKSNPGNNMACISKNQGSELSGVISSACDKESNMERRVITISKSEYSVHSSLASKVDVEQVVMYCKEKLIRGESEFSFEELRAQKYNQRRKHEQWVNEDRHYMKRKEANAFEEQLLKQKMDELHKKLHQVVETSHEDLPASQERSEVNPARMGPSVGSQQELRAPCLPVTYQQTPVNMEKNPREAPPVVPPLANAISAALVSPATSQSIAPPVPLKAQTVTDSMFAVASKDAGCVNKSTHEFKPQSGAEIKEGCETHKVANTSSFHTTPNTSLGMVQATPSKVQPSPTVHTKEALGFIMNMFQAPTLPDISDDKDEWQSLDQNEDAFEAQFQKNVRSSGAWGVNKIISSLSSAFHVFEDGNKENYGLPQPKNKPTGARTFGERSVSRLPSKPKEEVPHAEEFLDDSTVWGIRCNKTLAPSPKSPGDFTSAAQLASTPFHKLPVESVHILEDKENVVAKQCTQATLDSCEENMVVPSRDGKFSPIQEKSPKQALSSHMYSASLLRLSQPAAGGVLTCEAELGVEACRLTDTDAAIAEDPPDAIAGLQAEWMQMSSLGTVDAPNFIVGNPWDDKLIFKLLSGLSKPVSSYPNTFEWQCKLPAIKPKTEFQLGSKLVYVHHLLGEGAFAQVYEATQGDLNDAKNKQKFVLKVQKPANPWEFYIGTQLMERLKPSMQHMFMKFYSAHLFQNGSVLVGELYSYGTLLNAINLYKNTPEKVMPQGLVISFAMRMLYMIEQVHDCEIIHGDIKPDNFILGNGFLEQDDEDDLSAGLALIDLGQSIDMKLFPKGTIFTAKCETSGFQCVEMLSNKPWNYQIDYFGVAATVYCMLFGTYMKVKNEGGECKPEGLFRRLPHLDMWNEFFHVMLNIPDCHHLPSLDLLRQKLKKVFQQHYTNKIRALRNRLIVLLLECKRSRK
Sequence of kinases (KINOMEscan panel) (Homo sapiens, UniProt Q9BWU1) (Q9BWU1 whole entry): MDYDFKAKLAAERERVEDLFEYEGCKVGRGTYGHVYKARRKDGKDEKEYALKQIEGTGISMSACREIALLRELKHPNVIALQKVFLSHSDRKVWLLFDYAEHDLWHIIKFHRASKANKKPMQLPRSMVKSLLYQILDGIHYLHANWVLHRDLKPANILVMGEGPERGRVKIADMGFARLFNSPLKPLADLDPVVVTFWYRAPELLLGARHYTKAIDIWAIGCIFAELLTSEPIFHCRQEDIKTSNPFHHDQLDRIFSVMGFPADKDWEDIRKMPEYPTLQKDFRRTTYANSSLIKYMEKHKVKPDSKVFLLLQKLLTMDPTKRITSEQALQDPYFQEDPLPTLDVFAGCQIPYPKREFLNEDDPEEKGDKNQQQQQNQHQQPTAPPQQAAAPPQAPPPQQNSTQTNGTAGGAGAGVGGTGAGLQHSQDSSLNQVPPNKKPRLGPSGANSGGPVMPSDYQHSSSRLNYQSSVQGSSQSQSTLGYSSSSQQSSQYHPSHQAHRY

With `Cc1cccc(-c2nc(Nc3ccc4nn(C)cc4c3)c3ccccc3n2)n1` [NK167] the “KINOMEscan ITK” value [1] was 0, the “KINOMEscan KIT(V559D,V654A)” value [2] was 15 and the “KINOMEscan HCK” value [3] was 14. For the same compound, the “KINOMEscan HIPK3” value [4] was 0, the “KINOMEscan CDK19” value [5] was 24 and the “KINOMEscan MAP3K10” value [6] was 13. For the same compound, the “KINOMEscan TNK1” value [7] was 0, the “KINOMEscan PLK4” value [8] was 0 and the “KINOMEscan BUB1” value [9] was 0. For the same compound, the “KINOMEscan FGR” value [10] was 0 and the “KINOMEscan EIF2AK4/GCN2(Kin.Dom.2,S808G)” value [11] was 38.

In the case of `Cc1cccc(-c2nc(N(C)c3ccc4ncsc4c3)c3ccccc3n2)n1` [NK-161], the “KINOMEscan ITK” value [1] is reported as 14, the “KINOMEscan KIT(V559D,V654A)” value [2] is reported as 4 and the “KINOMEscan HCK” value [3] is reported as 16. The “KINOMEscan HIPK3” value [4] was 0, the “KINOMEscan CDK19” value [5] was 4 and the “KINOMEscan MAP3K10” value [6] was 1. For the same compound, the “KINOMEscan TNK1” value [7] was 7, the “KINOMEscan PLK4” value [8] was 3 and the “KINOMEscan BUB1” value [9] was 0. The “KINOMEscan FGR” value [10] was 0 and the “KINOMEscan EIF2AK4/GCN2(Kin.Dom.2,S808G)” value [11] was 53.
